Reference: patent US12285528B2, “Injectable formulations of anesthetics for any pathological pain” (New Jersey Institute of Technology, priority 2018, dated 2025)

Key:
Format in all cases: in vivo, rat
[1] = system: incision-induced mechanical pain hypersensitivity; experiment: Incisional pain model, mechanical allodynia (paw withdrawal threshold, von Frey) after peri-sciatic nerve injection; details: 0.25%, 0.2 mL peri-sciatic, P<0.05
Protocol: (§1) Male and female Sprague-Dawley rats weighing 200-250 g were obtained from Charles River Laboratories (Wilmington, MA). All rats were housed in an animal facility that was kept in a standard 12-h light/dark cycle, with standard laboratory water and food pellets available ad libitum. Animal experiments were conducted with the approval of the Animal Care and Use Committee at Rutgers-New Jersey Medical School and were consistent with the ethical guidelines of the US National Institutes of Health and the International Association for the Study of Pain. All efforts were made to minimize animal suffering and to reduce the number of animals used. To minimize intra- and inter-individual variability of behavioral outcome measures, animals were trained for 1-2 days before behavioral testing was performed. The experimenters were blinded to treatment condition during behavioral testing.
(§2) The incisional surgery was carried out with minor modification as described in T. J. Brennan, et al., Characterization of a rat model of incisional pain, Pain, 64 (1996) 493-501. Rats were anesthetized with 2% isoflurane delivered via a nose cone. The plantar aspect of the left hindpaw was prepared in a sterile manner with a 10% povidone-iodine solution. A 1-cm longitudinal incision was made with a number 11 blade, through skin and fascia of the plantar aspect of the foot, starting 0.5 cm from the proximal edge of the heel and extending toward the toes. The plantaris muscle was elevated and incised longitudinally. After hemostasis with gentle pressure, the skin was sutured with 5-0 nylon thread. The wound site was covered with a mixture of polymixin B, neomycin, and bacitracin ointment. After surgery, the animals were allowed to recover in their cages.
(§3) The rats received sciatic nerve block under inhalation anesthesia with isoflurane. Nerve block injections were performed with a 20-gauge needle under isoflurane-oxygen anesthesia as described in J. G. Thalhammer, et al., Neurologic evaluation of the rat during sciatic nerve block with lidocaine, Anesthesiology, 82 (1995) 1013-1025. […]

[2] = system: incision-induced thermal pain hypersensitivity; experiment: Incisional pain model, heat allodynia (paw withdrawal latency) after peri-sciatic nerve injection; details: 0.25%, P<0.05
Protocol: as §1, §2, §3

[3] = system: postsurgical pain (hindpaw plantar incision); experiment: Incisional pain model, overall analgesic effect (mechanical and heat) after peri-sciatic nerve injection; details: 0.25%, 0.2 mL peri-sciatic
Protocol: as §1
The incisional surgery was carried out with minor modification as described in T. J. Brennan, et al., Characterization of a rat model of incisional pain, Pain, 64 (1996) 493-501. Rats were anesthetized with 2% isoflurane delivered via a nose cone. The plantar aspect of the left hindpaw was prepared in a sterile manner with a 10% povidone-iodine solution. […]

locomotor function = experiment: Locomotor function test (placing, grasping, righting reflexes); details: 0.25%
Protocol: The rats were divided into different groups according to the different pain model performed (incisional pain model or SNI model), and were injected with 0.2 mL of a sustained-release ropivacaine hydrochloride PBS solution (SRR or alternatively, PLGA-ROPI) containing 0.25%, 0.125%, and 0.06% of PLGA-ROPI or PLGA-RVC·HCl, a PBS solution containing 0.25% free ropivacaine (FR or alternatively, Free-ROPI), and 2 control solutions of a neat PBS, and a neat PLGA, respectively. The % used here refers to the weight (gram %) of PLGA-ROPI or PLGA-RVC·HCl by the volume (mL) of the solution. For example, 0.25% refers to 0.25 g/100 mL. The animals were divided into 10 groups: incision+0.25% SRR, incision+0.125% SRR, incision+0.06% SRR, incision+0.25% FR, incision+PLGA, incision+PBS. SNI+0.25% SRR, SNI+0.125% SRR, SNI+0.06% SRR, SNI+PBS. Each group contained 8 rats. […] For the SNI model, mechanical and cold allodynia with 1 h intervals were used to examine rats 1 d before surgery and 7 d post-surgery, post peri-sciatic nerve injection on 7 d post-surgery, and the behavior test was resumed on d8, d10, d12, d14, d16, d19, and d22. Tests of locomotor function, including placing, grasping and righting reflexes, were performed before and after incision surgery according to the previously described protocol in Y. X. Tao, et al., Impaired neuropathic pain and preserved acute pain in rats overexpressing voltage-gated potassium channel subunit Kv1.2 in primary afferent neurons, Molecular Pain, 10 (2014) 8. (1) Placing reflex: The rat was held with hind limbs slightly lower than the forelimbs and the dorsal surfaces of the hind paws were brought into contact with the edge of a table. Whether the hind paws were placed on the table surface reflexively was recorded; (2) Grasping reflex: The rat was placed on a wire grid and whether the hind paws grasped the wire on contact was recorded; (3) Righting reflex: The rat's back was placed on a flat surface and whether it immediately assumed the normal upright position was recorded. […] In addition, the animal's general behaviors, including spontaneous activity (e.g. walking and running), were observed.

[4] = system: sciatic nerve and surrounding tissues; experiment: Histology (H&E) of sciatic nerve and surrounding tissues; details: 0.25%, 11 days after injection
Excerpt: The rats were anesthetized with isoflurane and sciatic nerves were harvested and fixed in 4% paraformaldehyde. Following tissue fixation and dehydration, sciatic nerves were embedded in Optimal cutting temperature compound (OCT compound) and 20-μm thin slices were cut on a cryostat, then stained using hematoxylin and eosin stain technique. Nerve structures were observed using a Nikon microscope (Nikon Eclipse 80i, Japan). Rats injected with PBS, PLGA, 0.25% FR (i.e., 0.25% Free ROPI), and 0.25% SRR (i.e., 0.25% PLGA-ROPI) were euthanized 11 days after injection (n=3 for each group), and the sciatic nerve and surrounding tissues were harvested, sectioned for histology, and stained with hematoxylin-eosin (H&E). SRR were not observed on gross dissection.

[5] = system: myelin basic protein (MBP) of sciatic nerve; experiment: Immunohistochemistry, MBP expression pattern of sciatic nerve; details: 0.25%, 11 days post injection
Protocol: Immunohistochemistry analysis were performed as described previously in Y. X. Tao, et al., Nerve injury-induced epigenetic silencing of opioid receptors controlled by DNMT3a in primary afferent neurons, Pain, 158 (2017) 1153-1165. The rats were anesthetized with isoflurane and perfused with 300 mL of 4% paraformaldehyde in 0.1 M phosphate-buffered saline (PBS) (pH 7.4). After perfusion, sciatic nerves were dissected, postfixed at 4° C. for 4 hours and cryoprotected in 30% sucrose overnight. The transverse and longitudinal sections were cut on a cryostat at a thickness of 20 μm. The sections were blocked for 1 hour at 25° C. in 0.01M PBS containing 5% goat serum and 0.3% Triton X-100. Sections were incubated overnight at 4° C. with mouse anti-myelin basic protein (MBP) (1:500; Biolegend, San Diego, CA). The sections were then incubated with a mixture of goat anti-mouse antibody conjugated to Cy2 (1:500; Jackson ImmunoResearch, West Grove, PA) for 2 hours at room temperature. Immunofluorescence-labeled images were generated using a Leica DMI4000 fluorescence microscope with a DFC365FX camera (Leica, Germany).
To examine whether injection of SRR injured the nerve fiber, we investigated the MBP expression pattern of sciatic nerve on 11 days post injection of PBS, PLGA, 0.25% FR, and 0.25% SRR (n=3 for each group).

[6] = system: sciatic nerve myelin sheath; experiment: Transmission electron microscopy, ultrastructure of sciatic nerve; details: 0.25%; day 11 after injection; ipsilateral sciatic nerve; no significant difference among groups
Protocol: The rats were anesthetized with isoflurane and perfused with 300 mL of 2.5% gluteraldehyde in 0.1M sodium cacodylate buffer (pH 7.4). After perfusion, sciatic nerves were dissected, postfixed at 4° C. for 3 hours. After dehydrated by gradient ethanol elution, samples were cleared by propylene, then infiltrated with resin and embed in moulds. Transmission electronic microscopy images were acquired by a Hitachi H-7500 transmission electron microscope (Hitachi, Ltd. Japan). To observe the ultrastructure of sciatic nerve after injection, we harvested ipsilateral sciatic nerves on day 11 after injection of PBS. PLGA, 0.25% FR, and 0.25% SRR (n=3 for each group), then processed the tissue to be examined under TEM. […] Specific features of the degeneration of myelin sheath including thinner lamellae, loose lamellae, split myelin lamellae with discontinuities, or vacuole-like inclusions in the cytoplasm of Schwann cells were not observed in any of the nerve tissue.

[7] = 2 h, normal reflexes in five trials

SMILES: CCCN1CCCC[C@H]1C(=O)Nc1c(C)cccc1C [FR, ropivacaine]
- increase of paw withdrawal threshold to mechanical stimulation vs incision+PBS ([1]; 2 h after surgery): 76%
- increase of paw withdrawal threshold to mechanical stimulation vs incision+PBS ([1]; 4 h after surgery): 59%
- increase of paw withdrawal threshold to mechanical stimulation vs incision+PBS ([1]; 12 h after surgery): 71%
- increase of paw withdrawal latency to heat stimulation vs incision+PBS ([2]; 0.2 mL peri-sciatic, 2 h after surgery): 29%
- increase of paw withdrawal latency to heat stimulation vs incision+PBS ([2]; 4 h after surgery): 33%
- increase of paw withdrawal latency to heat stimulation vs incision+PBS ([2]; 12 h after surgery): 18%
- period of analgesic effect [3]: ≤ 24 h post injection
- Grasping reflex score (locomotor function; [7]): 4.38(0.63)
- Placing reflex score (locomotor function; [7]): 5(0)
- Righting reflex score (locomotor function; [7]): 5(0)
- Grasping reflex score (locomotor function; 12 h): 5(0)
- Placing reflex score (locomotor function; 12 h): 5(0)
- Righting reflex score (locomotor function; 12 h): 5(0)
- Grasping reflex score (locomotor function; 1 d): 5(0)
- Placing reflex score (locomotor function; 1 d): 5(0)
- Righting reflex score (locomotor function; 1 d): 5(0)
- locomotor function (locomotor function; first 2 h after surgery, statistics showed no significant difference): slightly altered
- inflammation on microscopic examination (H&E) [4]: no significant inflammation
- MBP expression pattern / myelin morphology [5]: no abnormality was observed
- myelin sheath ultrastructure (TEM) [6]: intact and tightly laminated without any discontinuities
